Source: PMC6207715, “Determination of extended substrate specificity of the MALT1 as a strategy for the design of potent substrates and activity-based probes” (Scientific Reports, 2018)
Like-named read-outs stand apart in the source and are kept apart here. Non-standard residues stand in square brackets, D forms with d. *: point of attachment. ACC = NC(=O)Cc1cc(=O)oc2cc(N*)ccc12

What was measured:
Assay type in all cases: biochemical
MALT1 [1] = target: T1, MALT1 (Homo sapiens, UniProt Q9UDY8); assay: Kinetic assay of ACC fluorogenic substrates (kcat, Km, kcat/Km); settings: 37 °C; 50 mM HEPES, 100 mM NaCl, 0.9 M sodium citrate, 10 mM DTT, pH 7.5; substrate 3.90-150 μM; ACC fluorescence 355/460 nm; average of three measurements
T1 sequence (Q9UDY8 1-824): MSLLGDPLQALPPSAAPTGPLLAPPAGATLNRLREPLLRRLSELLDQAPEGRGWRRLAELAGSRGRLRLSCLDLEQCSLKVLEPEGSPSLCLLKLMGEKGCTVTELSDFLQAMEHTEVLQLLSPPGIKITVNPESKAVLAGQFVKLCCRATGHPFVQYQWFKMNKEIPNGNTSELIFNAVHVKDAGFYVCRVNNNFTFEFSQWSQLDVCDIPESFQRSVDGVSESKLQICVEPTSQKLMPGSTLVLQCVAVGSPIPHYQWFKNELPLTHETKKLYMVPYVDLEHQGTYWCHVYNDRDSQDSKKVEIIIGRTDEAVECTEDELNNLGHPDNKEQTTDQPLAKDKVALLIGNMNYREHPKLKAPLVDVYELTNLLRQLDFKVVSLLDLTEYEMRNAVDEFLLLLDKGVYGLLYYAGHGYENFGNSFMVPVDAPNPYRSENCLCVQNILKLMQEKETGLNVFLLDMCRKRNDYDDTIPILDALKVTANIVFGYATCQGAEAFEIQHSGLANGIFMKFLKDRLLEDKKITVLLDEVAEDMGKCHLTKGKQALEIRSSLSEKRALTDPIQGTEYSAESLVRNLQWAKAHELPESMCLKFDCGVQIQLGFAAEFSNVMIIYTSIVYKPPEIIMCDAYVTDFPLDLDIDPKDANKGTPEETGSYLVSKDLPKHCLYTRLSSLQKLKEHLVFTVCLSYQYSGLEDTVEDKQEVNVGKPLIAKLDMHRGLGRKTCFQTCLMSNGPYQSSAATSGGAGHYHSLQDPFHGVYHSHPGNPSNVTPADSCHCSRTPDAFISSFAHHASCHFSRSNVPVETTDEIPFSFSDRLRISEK
Method: Figure 2 MALT1 substrate activity. Panel a. kcat/Km values for MALT1 substrates compared with that of the reference substrate (ALVSR). MALT1 was incubated at 37 °C for 30 minutes and added to the wells containing the substrate at varying concentrations. Relative fluorescence units were measured over time at excitation/emission wavelengths of 355/460 nm for at least 10 minutes. The data represent averages of three separate measurements, and error bars represent standard deviations. Panel b. Structure of our best (lower panel) and the reference (upper panel) MALT1 fluorogenic substrate.
(§1) All kinetic assays were performed with a Spectra Max Gemini XPS spectrofluorimeter (Molecular Devices) and 96-well Corning plates. The measurement characteristics were as follows: 37 °C, excitation/emission wavelength of 355/460 nm, cutoff of 455 nm, and varying concentrations of substrates and enzyme. The assay buffer was prepared at 23 °C and contained 50 mM HEPES (2-[4-(2-hydroxyethyl)piperazin-1-yl]ethanesulfonic acid), 100 mM NaCl, 0.9 M sodium citrate and 10 mM dithiothreitol (DTT) (pH 7.5). MALT1^FL or MALT1^CD were preincubated for 30 minutes at 37 °C before being added to wells containing substrate. Next, the increase in fluorescence was recorded over the time. Only the linear portions of the curves were used for calculations. The kcat and Km values were calculated using GraphPad Prism and Microsoft Excel software. All measurements were repeated three times, and the data presented are averages of these replicates. […]
was carried out after each coupling and Fmoc deprotection step. The N terminus was protected with an acetyl group using 5 eq AcOH, 5 eq HBTU, and 5 eq DIPEA in DMF.
After solvent removal, the resin was washed six times with DMF in order to remove excess reagents, three times with DCM, and three times with MeOH and then dried over P2O5 and cleaved from the resin with a TFA/TIPS/H2O mixture (%, v/v/v, 95:2.5:2.5).
The crude product was purified by HPLC and lyophilized. The purity of each substrate was confirmed by analytical HPLC, and each substrate was analyzed using HRMS.
(§2) Substrates were dissolved in peptide-grade DMSO to a concentration of 20 mM and stored at -80°C until use.
(§3) Calculation of kcat, Km and kcat/Km values
(§4) Kinetic parameters were calculated under the same conditions as the library with slight modification. The total reaction volume in each well was 100 μL. The substrate and enzyme concentrations used ranged from 3.90 μM to 150 μM and 40 μM, respectively.
(§5) The increase in relative fluorescence units was monitored for 20-30 minutes, and only the linear parts of the curves were used to determine the rate of the reaction. The kcat and Km values were calculated using GraphPad Prism software. All measurements were repeated three times using the appropriate concentration of the enzyme, and the data presented are averages of these repetitions.

MALT1^C/A = assay: MALT1 labeling with PKG105, SDS-PAGE fluorescence scan; settings: 100 nM enzyme; probe 500, 250, 125 nM; 30 minutes, 37 °C; gel scan 700 nm
Method: (§6) MALT1^FL, MALT1^CD or MALT1^C/A at 100 nM were incubated with PKG105 at three different concentrations: 500 nM, 250 nM and 125 nM for 30 minutes at 37 °C. As a control, MALT1^FL without the probe was incubated in the assay buffer. Samples were denatured in 3 × SDS-loading buffer for 5 minutes at 95 °C. SDS-PAGE was performed under reducing conditions for 37 minutes at 165 V. The fluorescence signal in the gel was measured using a Li-Cor (Odyssey®) instrument at a wavelength of 700 nm.

MALT1^CD [2] = target: T2, MALT1^CD (Homo sapiens, UniProt Q9UDY8); assay: as above; settings: 100 nM enzyme; probe 500, 250, 125 nM; 30 minutes, 37 °C; gel scan 700 nm
T2 construct: the MALT1 catalytic domain (MALT1^CD)
T2 sequence (Q9UDY8 348-562 limits assumed): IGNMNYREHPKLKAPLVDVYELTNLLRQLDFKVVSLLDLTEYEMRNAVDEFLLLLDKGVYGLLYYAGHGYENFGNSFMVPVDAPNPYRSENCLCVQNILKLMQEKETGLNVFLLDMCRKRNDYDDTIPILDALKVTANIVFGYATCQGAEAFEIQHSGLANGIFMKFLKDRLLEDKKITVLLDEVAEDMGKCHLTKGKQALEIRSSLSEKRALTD
Method: as §6

MALT1^FL [3] = target: T3, MALT1^FL (Homo sapiens, UniProt Q9UDY8); assay: as above; settings: 100 nM enzyme; probe 500, 250, 125 nM; 30 minutes, 37 °C; gel scan 700 nm
T3 construct: treating full-length MALT1 (MALT1^FL), the MALT1 catalytic domain (MALT1^CD)
T3 sequence (Q9UDY8 1-824): T1 sequence (Q9UDY8 1-824)
Method: as §6

MALT1 [4] = target: T1, MALT1; assay: Inhibition kinetics of activity-based probe (kobs/I)
[5] = system: MALT1 in RAW 264.7 cell lysates; assay: Labeling of active MALT1 in RAW 264.7 cell lysates
Method: Figure 3 Probe to detect active MALT1. Panel a. Structure of the MALT1 probe (PKG105). Panel b. RAW 264.7 cell lysates were incubated with PKG105 at various concentrations. As a control, lysates were pretreated with mepazine, followed by incubation with probe. Lysates that were not treated with mepazine were also used. SDS-PAGE was performed at 165 V. Fluorescence was scanned using the 700 nm channel (LI-COR). Gels are representative of at least two replicates. TEXT PRINTED IN THE PICTURE: (a) PKG105: kobs/I = 92,000 M^-1s^-1
Twenty-five microliters of RAW 264.7 cell lysates (from 5 * 10^6 cells/mL) were incubated with PKG105 at concentrations ranging from 8 to 500 nM. As controls, cells that were not incubated with probe or cells that were pretreated with 1 µL of 10 mM mepazine were treated with 500 nM PKG105. The lysates were incubated with the probe for 30 minutes at 37 °C, followed by denaturation in 3 × SDS-loading buffer for 5 minutes at 95 °C. SDS-PAGE was performed under reducing conditions for 37 minutes at 165 V. The fluorescence signal in the gel was measured using a Li-Cor (Odyssey®) at a wavelength of 700 nm.

MALT1^FL [6] = target: T3, MALT1^FL; assay: Kinetic assay of IQF substrates, full-length enzyme; settings: IQF substrate, ACC/Lys(Dnp) pair; 37 °C, assay buffer pH 7.5; 355/460 nm; average of three
Method: as §1, §2, §3, §4, §5

MALT1^CD [7] = target: T2, MALT1^CD; assay: Kinetic assay of IQF substrates, catalytic domain; settings: IQF substrate, ACC/Lys(Dnp) pair; 37 °C, assay buffer pH 7.5; 355/460 nm; average of three
Method: as §1, §2, §3, §4, §5

“Ac-[dA]LVSR-{ACC} (SMILES CC(=O)N[C@H](C)C(=O)N[C@@H](CC(C)C)C(=O)N[C@H](C(=O)N[C@@H](CO)C(=O)N[C@@H](CCCNC(=N)N)C(=O)Nc1ccc2c(CC(N)=O)cc(=O)oc2c1)C(C)C) [Ac-D-Ala-LVSR-ACC]” gave a Km (MALT1 [1]) of 24.4 ± 6.97 µM and a kcat (MALT1 [1]) of 0.076 ± 0.034 s⁻¹.

With “Cy5-Phe(guan)-Leu-Val-Pro-Arg-AOMK [PKG105]” the “labeling of MALT1^C/A catalytic mutant by probe” value (MALT1^C/A) was “no labeling was observed”, the “labeling of MALT1^CD by probe” value (MALT1^CD [2]) was “detected enzyme activity” and the “labeling of MALT1^FL by probe” value (MALT1^FL [3]) was “detected enzyme activity”. For the same compound, the kobs/I (MALT1 [4]) was 92,000 s^−1M^−1, the kobs/I (MALT1 [4]; printed in Figure 3a) was 92,000 M^-1s^-1 and the “kobs/I relative to the best MALT1 inhibitor in the literature” value (MALT1 [4]; times higher than 9,300 s^−1M^−1) was “approximately 10 times”. The “detection of active MALT1 in cell lysates by probe” value ([5]; RAW 264.7 lysates, probe 8 to 500 nM, 30 minutes, 37 °C, gel scan 700 nm) was “detected active MALT1”.

For “H2N-ACC-Ahx-A-L-V-S-R–G-Abu-K(Dnp)G-OH [Substrate M2]”, the “kcat/Km, MALT1^FL” value (MALT1^FL [6]) was 5.5 * 10^3 ± 291 M^−1s^−1 and the “kcat/Km, MALT1^CD” value (MALT1^CD [7]) was 2.6 * 10^3 ± 38 M^−1s^−1.

“Ac-TLVSR-{ACC} (SMILES CC(=O)N[C@H](C(=O)N[C@@H](CC(C)C)C(=O)N[C@H](C(=O)N[C@@H](CO)C(=O)N[C@@H](CCCNC(=N)N)C(=O)Nc1ccc2c(CC(N)=O)cc(=O)oc2c1)C(C)C)[C@@H](C)O) [Ac-Thr-LVSR-ACC]” gave a Km (MALT1 [1]) of 22.4 ± 9.94 µM and a kcat (MALT1 [1]) of 0.12 ± 0.0050 s⁻¹.

In the case of “Ac-RLVSR-{ACC} (SMILES CC(=O)N[C@@H](CCCNC(=N)N)C(=O)N[C@@H](CC(C)C)C(=O)N[C@H](C(=O)N[C@@H](CO)C(=O)N[C@@H](CCCNC(=N)N)C(=O)Nc1ccc2c(CC(N)=O)cc(=O)oc2c1)C(C)C) [Ac-Arg-LVSR-ACC]”, the Km (MALT1 [1]) is reported as 19.06 ± 0.05 µM and the kcat (MALT1 [1]) is reported as 0.12 ± 0.0003 s⁻¹.

Work on “Ac-[dV]LVSR-{ACC} (SMILES CC(=O)N[C@@H](C(=O)N[C@@H](CC(C)C)C(=O)N[C@H](C(=O)N[C@@H](CO)C(=O)N[C@@H](CCCNC(=N)N)C(=O)Nc1ccc2c(CC(N)=O)cc(=O)oc2c1)C(C)C)C(C)C) [Ac-D-Val-LVSR-ACC]” yielded a Km (MALT1 [1]) of 19.2 ± 2.5 µM and a kcat (MALT1 [1]) of 0.15 ± 0.012 s⁻¹.

CN1CCCC(CN2c3ccccc3Sc3ccccc32)C1 (stereo not drawn) [Mepazine, reference compound] was tested, and the “effect of inhibitor pretreatment on probe labeling” value ([5]; RAW 264.7 lysates pretreated with 1 µL of 10 mM mepazine, then 500 nM PKG105) was “inhibited MALT1”.
